{
  "source": "patent US6608090B1",
  "about": "“Benzothiophenes with novel basic side chains” (Eli Lilly and Company, priority 1995, dated 2003)",
  "key": {"[1]": {"system": "ovariectomized (OVX) female Sprague Dawley rats", "assay": "Serum cholesterol in ovariectomized rats (post-menopausal model), 4 days of daily dosing", "type": "in vivo, rat", "settings": "for Cholest. % dec. OVX: oral, daily for 4 days", "description": "(§1) In the examples illustrating the methods, a post-menopausal model was used in which effects of different treatments upon circulating lipids were determined.\n(§2) Seventy-five day old female Sprague Dawley rats (weight range of 200 to 225 g) were obtained from Charles River Laboratories (Portage, Mich.). The animals were either bilaterally ovariectomized (OVX) or exposed to a Sham surgical procedure at Charles River Laboratories, and then shipped after one week. Upon arrival, they were housed in metal hanging cages in groups of 3 or 4 per cage and had ad libitum access to food (calcium content approximately 0.5%) and water for one week. Room temperature was maintained at 22.2°±1.70° C. with a minimum relative humidity of 40%. The photoperiod in the room was 12 hours light and 12 hours dark.\n(§3) Dosina Reaimen Tissue Collection. After a one week acclimation period (therefore, two weeks post-OVX) daily dosing with test compound was initiated. 17α-ethynyl estradiol or the test compound were given orally, unless otherwise stated, as a suspension in 1% carboxymethylcellulose or dissolved in 20% cyclodextrin. Animals were dosed daily for 4 days. Following the dosing regimen, animals were weighed and anesthetized with a ketamine: xylazine (2:1, V:V) mixture and a blood sample was collected by cardiac puncture. The animals were then sacrificed by asphyxiation with CO2, the uterus was removed through a midline incision, and a wet uterine weight was determined.\nCholesterol Analysis. Blood samples were allowed to clot at room temperature for 2 hours, and serum was obtained following centrifugation for 10 minutes at 3000 rpm. Serum cholesterol was determined using a Boehringer Mannheim Diagnostics high performance cholesterol assay. Briefly the cholesterol was oxidized to cholest-4-en-3-one and hydrogen peroxide. The hydrogen peroxide was then reacted with phenol and 4-aminophenazone in the presence of peroxidase to produce a p-quinone imine dye, which was read spectrophotemetrically at 500 nm. Cholesterol concentration was then calculated against a standard curve. The entire assay was automated using a Biomek Automated Workstation."}, "[2]": {"system": "ovariectomized (OVX) female Sprague Dawley rats", "assay": "Wet uterine weight in ovariectomized rats, 4 days of daily dosing", "settings": "rat, in vivo, po, 0.1 mg/kg/day", "description": "as §1, §2\nas §3, with “Following the dosing regimen, animals were weighed and anesthetized with a ketamine: xylazine (2:1, V:V) mixture and a blood sample was collected by cardiac puncture.” left out"}, "[3]": {"system": "ovariectomized rats", "assay": "Osteoporosis Test Procedure: femur density in ovariectomized rats, 35 days", "type": "in vivo, rat", "settings": "oral, in 20% hydroxypropyl β-cyclodextrin, daily for 35 days", "description": "Following the General Preparation Procedure, infra, the rats are treated daily for 35 days (6 rats per treatment group) and sacrificed by decapitation on the 36th day. The 35 day time period is sufficient to allow maximal reduction in bone density, measured as described herein. At the time of sacrifice, the uteri are removed, dissected free of extraneous tissue, and the fluid contents are expelled before determination of wet weight in order to confirm estrogen deficiency associated with complete ovariectomy. […] The uteri are then placed in 10% neutral buffered formalin to allow for subsequent histological analysis. The right femurs are excised and scanned at the distal metaphysis 1 mm from the patellar groove with single photon absorptiometry. Results of the densitometer measurements represent a calculation of bone density as a function of the bone mineral content and bone width. In accordance with the above procedures, compounds of the present invention and ethynyl estradiol (EE2) in 20% hydroxypropyl β-cyclodextrin are orally administered to test animals."}, "[4]": {"system": "uteri of ovariectomized (OVX) female Sprague Dawley rats", "assay": "Uterine Eosinophil Peroxidase (EPO) Assay", "settings": "rat, in vivo"}},
  "data": [
    {"smiles": "CC1CCCC(C)N1CCOc1ccc(C(=O)c2c(-c3ccc(O)cc3)sc3cc(O)ccc23)cc1", "note": "(stereo not shown)", "values": [
      {"measurement": "Cholest. % dec. OVX", "setting": "[1]; 0.1 mg/kg", "value": 41.5, "unit": "%"},
      {"measurement": "Cholest. % dec. OVX", "setting": "[1]; 1 mg/kg", "value": 62.3, "unit": "%"},
      {"measurement": "Cholest. % dec. OVX", "setting": "[1]; 10 mg/kg", "value": 76.9, "unit": "%"}
    ]},
    {"smiles": "CC1CCN(CCOc2ccc(C(=O)c3c(-c4ccc(O)cc4)sc4cc(O)ccc34)cc2)CC1", "values": [
      {"measurement": "Cholest. % dec. OVX", "setting": "[1]; 0.1 mg/kg", "value": 43.2, "unit": "%"},
      {"measurement": "Cholest. % dec. OVX", "setting": "[1]; 1 mg/kg", "value": 71.0, "unit": "%"},
      {"measurement": "Cholest. % dec. OVX", "setting": "[1]; 10 mg/kg", "value": 51.6, "unit": "%"}
    ]},
    {"smiles": "O=C(c1ccc(OCCN2CCC[C@@H]2CO)cc1)c1c(-c2ccc(O)cc2)sc2cc(O)ccc12", "values": [
      {"measurement": "Cholest. % dec. OVX", "setting": "[1]; 0.1 mg/kg", "value": 42.0, "unit": "%"},
      {"measurement": "Cholest. % dec. OVX", "setting": "[1]; 1 mg/kg", "value": 40.6, "unit": "%"},
      {"measurement": "Cholest. % dec. OVX", "setting": "[1]; 10 mg/kg", "value": 71.9, "unit": "%"}
    ]},
    {"smiles": "O=C(c1ccc(OCCN2CCC[C@H]2CO)cc1)c1c(-c2ccc(O)cc2)sc2cc(O)ccc12", "values": [
      {"measurement": "Cholest. % dec. OVX", "setting": "[1]; 0.1 mg/kg", "value": 46.7, "unit": "%"},
      {"measurement": "Cholest. % dec. OVX", "setting": "[1]; 1 mg/kg", "value": 73.7, "unit": "%"},
      {"measurement": "Cholest. % dec. OVX", "setting": "[1]; 10 mg/kg", "value": 74.5, "unit": "%"}
    ]},
    {"smiles": "CC1(C)CCCN(CCOc2ccc(C(=O)c3c(-c4ccc(O)cc4)sc4cc(O)ccc34)cc2)C1", "values": [
      {"measurement": "Cholest. % dec. OVX", "setting": "[1]; 0.1 mg/kg", "value": 25.1, "unit": "%"},
      {"measurement": "Cholest. % dec. OVX", "setting": "[1]; 1 mg/kg", "value": 58.6, "unit": "%"},
      {"measurement": "Cholest. % dec. OVX", "setting": "[1]; 10 mg/kg", "value": 50.9, "unit": "%"}
    ]},
    {"smiles": "CC1(C)CCN(CCOc2ccc(C(=O)c3c(-c4ccc(O)cc4)sc4cc(O)ccc34)cc2)CC1", "values": [
      {"measurement": "Cholest. % dec. OVX", "setting": "[1]; 0.1 mg/kg", "value": 14.5, "unit": "%"},
      {"measurement": "Cholest. % dec. OVX", "setting": "[1]; 1 mg/kg", "value": 25.9, "unit": "%"},
      {"measurement": "Cholest. % dec. OVX", "setting": "[1]; 10 mg/kg", "value": 65.8, "unit": "%"}
    ]},
    {"smiles": "C#C[C@]1(O)CC[C@H]2[C@@H]3CCc4cc(O)ccc4[C@H]3CC[C@@]21C", "note": "[EE2, 17α-ethynyl estradiol]", "values": [
      {"measurement": "effect on serum cholesterol (in words)", "setting": "[1]; orally administered at 0.1 mg/Kg/day", "value": "caused a decrease in serum cholesterol"},
      {"measurement": "uterine weight compared with ovariectomized test animals (in words)", "setting": "[2]", "value": "substantially greater"},
      {"measurement": "loss of femur density (bone loss) after ovariectomy, in words", "setting": "[3]", "value": "prevents this loss"},
      {"measurement": "eosinophil infiltration into the uterus (stromal layer), in words", "setting": "[4]", "value": "substantial, expected increase in esosinophils infiltration"}
    ]},
    {"smiles": "CC1CC(C)CN(CCOc2ccc(C(=O)c3c(-c4ccc(O)cc4)sc4cc(O)ccc34)cc2)C1", "note": "(racemic)", "values": [
      {"measurement": "Cholest. % dec. OVX", "setting": "[1]; 0.1 mg/kg", "value": 50.6, "unit": "%"},
      {"measurement": "Cholest. % dec. OVX", "setting": "[1]; 1 mg/kg", "value": 69.7, "unit": "%"},
      {"measurement": "Cholest. % dec. OVX", "setting": "[1]; 10 mg/kg", "value": 81.6, "unit": "%"}
    ]},
    {"smiles": "C[C@@H]1C[C@H](C)CN(CCOc2ccc(C(=O)c3c(-c4ccc(O)cc4)sc4cc(O)ccc34)cc2)C1", "values": [
      {"measurement": "Cholest. % dec. OVX", "setting": "[1]; 0.1 mg/kg", "value": 13.8, "unit": "%"},
      {"measurement": "Cholest. % dec. OVX", "setting": "[1]; 1 mg/kg", "value": 66.8, "unit": "%"},
      {"measurement": "Cholest. % dec. OVX", "setting": "[1]; 10 mg/kg", "value": 85.5, "unit": "%"}
    ]},
    {"smiles": "COC[C@@H]1CCCN1CCOc1ccc(C(=O)c2c(-c3ccc(O)cc3)sc3cc(O)ccc23)cc1", "values": [
      {"measurement": "Cholest. % dec. OVX", "setting": "[1]; 0.1 mg/kg", "value": 30.2, "unit": "%"},
      {"measurement": "Cholest. % dec. OVX", "setting": "[1]; 1 mg/kg", "value": 65.4, "unit": "%"},
      {"measurement": "Cholest. % dec. OVX", "setting": "[1]; 10 mg/kg", "value": 80.3, "unit": "%"}
    ]}
  ]
}
